Measured values reported in the NIST ThermoML archive (doi:10.1021/je4009238).
Numbers after ± are expanded uncertainties.

Test: xn = mol fraction of the nth substance listed
Conditions: 101 kPa, Liquid

Molecule `CCn1cc[n+](C)c1.[Cl-]` [1-ethyl-3-methylimidazolium chloride] + CN(C)C=O has a mass density (288.15 K, x1 = 0.0102) of 958.86 ± 0.81 kg/m3, a viscosity (288.15 K, x1 = 0.0102) of 1.023 ± 0.11 mPa·s and a mass density (288.15 K, x1 = 0.0203) of 963.47 ± 0.78 kg/m3. It also gave a viscosity (288.15 K, x1 = 0.0203) of 1.156 ± 0.12 mPa·s, a mass density (288.15 K, x1 = 0.031) of 968.07 ± 0.75 kg/m3 and a viscosity (288.15 K, x1 = 0.031) of 1.188 ± 0.12 mPa·s. The mass density (288.15 K, x1 = 0.0417) was 972.24 ± 0.73 kg/m3, the viscosity (288.15 K, x1 = 0.0417) was 1.327 ± 0.13 mPa·s and the mass density (288.15 K, x1 = 0.0524) was 976.38 ± 0.7 kg/m3. The viscosity (288.15 K, x1 = 0.0524) was 1.399 ± 0.13 mPa·s, the mass density (288.15 K, x1 = 0.0635) was 980.82 ± 0.68 kg/m3 and the viscosity (288.15 K, x1 = 0.0635) was 1.535 ± 0.14 mPa·s. It also gave a mass density (288.15 K, x1 = 0.0752) of 984.98 ± 0.65 kg/m3, a viscosity (288.15 K, x1 = 0.0752) of 1.765 ± 0.15 mPa·s and a mass density (288.15 K, x1 = 0.0867) of 989.33 ± 0.63 kg/m3. It also gave a viscosity (288.15 K, x1 = 0.0867) of 1.867 ± 0.16 mPa·s, a mass density (288.15 K, x1 = 0.0988) of 993.32 ± 0.6 kg/m3 and a viscosity (288.15 K, x1 = 0.0988) of 2.123 ± 0.17 mPa·s. It also gave a mass density (288.15 K, x1 = 0.1107) of 997.33 ± 0.58 kg/m3, a viscosity (288.15 K, x1 = 0.1107) of 2.25 ± 0.18 mPa·s and a mass density (288.15 K, x1 = 0.1232) of 1001.39 ± 0.57 kg/m3. For the same molecule, the viscosity (288.15 K, x1 = 0.1232) was 2.429 ± 0.19 mPa·s, the mass density (288.15 K, x1 = 0.1361) was 1005.6 ± 0.6 kg/m3 and the viscosity (288.15 K, x1 = 0.1361) was 2.766 ± 0.21 mPa·s. It also gave a mass density (288.15 K, x1 = 0.1489) of 1009.6 ± 0.63 kg/m3, a viscosity (288.15 K, x1 = 0.1489) of 3.002 ± 0.23 mPa·s and a mass density (288.15 K, x1 = 0.1626) of 1013.74 ± 0.65 kg/m3. The viscosity (288.15 K, x1 = 0.1626) was 3.293 ± 0.24 mPa·s, the mass density (288.15 K, x1 = 0.1759) was 1017.7 ± 0.68 kg/m3 and the viscosity (288.15 K, x1 = 0.1759) was 3.645 ± 0.27 mPa·s. For the same molecule, the mass density (298.15 K, x1 = 0.0102) was 949.52 ± 0.86 kg/m3, the viscosity (298.15 K, x1 = 0.0102) was 0.8935 ± 0.11 mPa·s and the mass density (298.15 K, x1 = 0.0203) was 954.18 ± 0.84 kg/m3. It also gave a viscosity (298.15 K, x1 = 0.0203) of 1.007 ± 0.11 mPa·s, a mass density (298.15 K, x1 = 0.031) of 958.86 ± 0.81 kg/m3 and a viscosity (298.15 K, x1 = 0.031) of 1.03 ± 0.11 mPa·s. For the same molecule, the mass density (298.15 K, x1 = 0.0417) was 963.18 ± 0.78 kg/m3, the viscosity (298.15 K, x1 = 0.0417) was 1.147 ± 0.12 mPa·s and the mass density (298.15 K, x1 = 0.0524) was 967.27 ± 0.76 kg/m3. The viscosity (298.15 K, x1 = 0.0524) was 1.198 ± 0.12 mPa·s, the mass density (298.15 K, x1 = 0.0635) was 971.86 ± 0.73 kg/m3 and the viscosity (298.15 K, x1 = 0.0635) was 1.312 ± 0.13 mPa·s. It also gave a mass density (298.15 K, x1 = 0.0752) of 976.05 ± 0.71 kg/m3, a viscosity (298.15 K, x1 = 0.0752) of 1.501 ± 0.14 mPa·s and a mass density (298.15 K, x1 = 0.0867) of 980.59 ± 0.68 kg/m3. It also gave a viscosity (298.15 K, x1 = 0.0867) of 1.577 ± 0.14 mPa·s, a mass density (298.15 K, x1 = 0.0988) of 984.64 ± 0.65 kg/m3 and a viscosity (298.15 K, x1 = 0.0988) of 1.784 ± 0.15 mPa·s. It also gave a mass density (298.15 K, x1 = 0.1107) of 988.67 ± 0.63 kg/m3, a viscosity (298.15 K, x1 = 0.1107) of 1.879 ± 0.16 mPa·s and a mass density (298.15 K, x1 = 0.1232) of 992.88 ± 0.61 kg/m3. For the same molecule, the viscosity (298.15 K, x1 = 0.1232) was 2.014 ± 0.17 mPa·s, the mass density (298.15 K, x1 = 0.1361) was 997.07 ± 0.58 kg/m3 and the viscosity (298.15 K, x1 = 0.1361) was 2.278 ± 0.18 mPa·s. For the same molecule, the mass density (298.15 K, x1 = 0.1489) was 1001.24 ± 0.57 kg/m3, the viscosity (298.15 K, x1 = 0.1489) was 2.453 ± 0.19 mPa·s and the mass density (298.15 K, x1 = 0.1626) was 1005.4 ± 0.6 kg/m3. The viscosity (298.15 K, x1 = 0.1626) was 2.672 ± 0.21 mPa·s, the mass density (298.15 K, x1 = 0.1759) was 1009.49 ± 0.63 kg/m3 and the viscosity (298.15 K, x1 = 0.1759) was 2.922 ± 0.22 mPa·s. The mass density (308.15 K, x1 = 0.0102) was 940.08 ± 0.92 kg/m3, the viscosity (308.15 K, x1 = 0.0102) was 0.7902 ± 0.1 mPa·s and the mass density (308.15 K, x1 = 0.0203) was 944.84 ± 0.89 kg/m3. The viscosity (308.15 K, x1 = 0.0203) was 0.8895 ± 0.11 mPa·s, the mass density (308.15 K, x1 = 0.031) was 949.62 ± 0.86 kg/m3 and the viscosity (308.15 K, x1 = 0.031) was 0.9058 ± 0.11 mPa·s. The mass density (308.15 K, x1 = 0.0417) was 954.02 ± 0.84 kg/m3, the viscosity (308.15 K, x1 = 0.0417) was 1.004 ± 0.11 mPa·s and the mass density (308.15 K, x1 = 0.0524) was 958.21 ± 0.81 kg/m3. It also gave a viscosity (308.15 K, x1 = 0.0524) of 1.045 ± 0.11 mPa·s, a mass density (308.15 K, x1 = 0.0635) of 962.87 ± 0.79 kg/m3 and a viscosity (308.15 K, x1 = 0.0635) of 1.139 ± 0.12 mPa·s. For the same molecule, the mass density (308.15 K, x1 = 0.0752) was 967.15 ± 0.76 kg/m3, the viscosity (308.15 K, x1 = 0.0752) was 1.297 ± 0.13 mPa·s and the mass density (308.15 K, x1 = 0.0867) was 971.78 ± 0.73 kg/m3. It also gave a viscosity (308.15 K, x1 = 0.0867) of 1.355 ± 0.13 mPa·s, a mass density (308.15 K, x1 = 0.0988) of 975.93 ± 0.71 kg/m3 and a viscosity (308.15 K, x1 = 0.0988) of 1.527 ± 0.14 mPa·s. It also gave a mass density (308.15 K, x1 = 0.1107) of 980.02 ± 0.68 kg/m3, a viscosity (308.15 K, x1 = 0.1107) of 1.625 ± 0.15 mPa·s and a mass density (308.15 K, x1 = 0.1232) of 984.31 ± 0.66 kg/m3. For the same molecule, the viscosity (308.15 K, x1 = 0.1232) was 1.705 ± 0.15 mPa·s, the mass density (308.15 K, x1 = 0.1361) was 988.59 ± 0.63 kg/m3 and the viscosity (308.15 K, x1 = 0.1361) was 1.916 ± 0.16 mPa·s. For the same molecule, the mass density (308.15 K, x1 = 0.1489) was 992.84 ± 0.61 kg/m3, the viscosity (308.15 K, x1 = 0.1489) was 2.051 ± 0.17 mPa·s and the mass density (308.15 K, x1 = 0.1626) was 997.09 ± 0.59 kg/m3. For the same molecule, the viscosity (308.15 K, x1 = 0.1626) was 2.251 ± 0.18 mPa·s, the mass density (308.15 K, x1 = 0.1759) was 1001.24 ± 0.58 kg/m3 and the viscosity (308.15 K, x1 = 0.1759) was 2.406 ± 0.19 mPa·s.
